This note sets out measurements from patent publication US12655460B2, “Rapid antimicrobial susceptibility testing by image analysis” (Beth Israel Deaconess Medical Center, Inc., priority 2019, dated 2026).

A short description of test [1]: Rapid antimicrobial susceptibility testing (MIC) by flatbed-scanner imaging of doubling dilutions in a well plate, cefepime. Type of test: cell-based. An excerpt:
The dispensing technology may use well plate 205, which may be a standard 96-, 384-, or 1536-well microtiter plate. Well plate 205 contains doubling dilutions of antimicrobials. Any antimicrobials can be used. Antibiotics are mentioned as an example of an antimicrobial, but any antimicrobial or other treatment agent (e.g. antifungal, antiviral, anti-parasitic) can be used unless context clearly dictates otherwise. The doubling dilution series can be prepared at the time of use, or plates with doubling dilutions can be pre-made and stored with lyophilized antibiotics or with antibiotics in broth that are frozen and thawed before use. […] The positive blood culture broth or dilutions of the positive blood culture broth can be added to the wells using any of several liquid handling devices or manually or through use of an inkjet printer 210 which we determined can quantitatively print out positive blood culture broth.
(§1) Typically positive blood-culture broth has organisms at 5×10^9 colony-forming units per mL. In our experiments, we determined that this could be diluted 5-fold in sterile water and 0.3% tween-20 and this dilution dispensed at 250 nl per well to create a starting inoculum of approximately 2.5×10^7 per mL in wells in a 384 well plate containing a volume of 10 μl. […]

Another test relates to E. coli. Briefly: Rapid antimicrobial susceptibility testing (MIC) by flatbed-scanner imaging of doubling dilutions in a well plate, gentamicin. The test is classed as cell-based. Set-up: unit not given here. The note with it: 37° C.
Excerpt: The dispensing technology may use well plate 205, which may be a standard 96-, 384-, or 1536-well microtiter plate. Well plate 205 contains doubling dilutions of antimicrobials. Any antimicrobials can be used. Antibiotics are mentioned as an example of an antimicrobial, but any antimicrobial or other treatment agent (e.g. antifungal, antiviral, anti-parasitic) can be used unless context clearly dictates otherwise. The doubling dilution series can be prepared at the time of use, or plates with doubling dilutions can be pre-made and stored with lyophilized antibiotics or with antibiotics in broth that are frozen and thawed before use. In embodiments, 50 μl of broth are added to wells in well plate 205 and desired two-fold dilutions of antibiotics are added to wells using inkjet printing technology 210 as described in WO 2017/218202 A1, the entire contents of which are incorporated by reference for all purposes. In other embodiments, antibiotics can be added either manually or with any of several suitable liquid handling devices. Positive blood culture broth is then added to the microtiter wells. The positive blood culture broth or dilutions of the positive blood culture broth can be added to the wells using any of several liquid handling devices or manually or through use of an inkjet printer 210 which we determined can quantitatively print out positive blood culture broth.
as §1
We have made use of a CCD flatbed scanner to scan plates. In our example, the plates are incubated in a separate incubator and placed on a plate bed scanner at different time points for reading. Using a flatbed scanner, we have determined that accurate AST results can be obtained with incubation times of 1.5 hours or less. […]

Converted amounts (≈) assume the structure as drawn.

In the case of `CO/N=C(\C(=O)N[C@@H]1C(=O)N2C(C(=O)[O-])=C(C[N+]3(C)CCCC3)CS[C@H]12)c1csc(N)n1` [cefepime], the MIC in test [1] (3 hours of incubation (graph 630)) and in test [1] (4 hours of incubation (graph 640)) was 31 µg/mL (≈ 64.5 µM) throughout.

In the case of gentamicin, the MIC in the test with E. coli (2 hours of incubation (graph 520)), in the test on E. coli (3 hours of incubation (graph 530)) and in the test with E. coli (4 hours of incubation (graph 540)) was 1.0 in each case.
